Columns and labels:
[1] = molecular target: T1, Alpha-1A adrenergic receptor (Homo sapiens, UniProt P35348); format: functional, cell-based; note: assay procedure not described here
T1 sequence (P35348 whole entry): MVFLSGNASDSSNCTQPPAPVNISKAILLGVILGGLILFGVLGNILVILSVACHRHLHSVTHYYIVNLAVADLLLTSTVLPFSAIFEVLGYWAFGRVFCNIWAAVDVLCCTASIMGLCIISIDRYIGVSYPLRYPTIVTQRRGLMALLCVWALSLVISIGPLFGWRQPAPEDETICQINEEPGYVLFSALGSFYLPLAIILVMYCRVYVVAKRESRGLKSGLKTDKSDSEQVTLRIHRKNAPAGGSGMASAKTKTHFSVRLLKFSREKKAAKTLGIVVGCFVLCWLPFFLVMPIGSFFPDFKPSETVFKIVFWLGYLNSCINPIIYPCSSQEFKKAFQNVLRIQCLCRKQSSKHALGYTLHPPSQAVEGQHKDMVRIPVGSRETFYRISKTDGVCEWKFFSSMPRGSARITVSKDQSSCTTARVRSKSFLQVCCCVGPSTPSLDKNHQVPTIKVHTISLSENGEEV

[2] = molecular target: T1, Alpha-1A adrenergic receptor; format: functional, cell-based; remark: listed apart in the source
Glucocorticoid receptor = molecular target: T2, Glucocorticoid receptor (Homo sapiens, UniProt P04150); format: functional; note: assay procedure not described here
T2 sequence (P04150 whole entry): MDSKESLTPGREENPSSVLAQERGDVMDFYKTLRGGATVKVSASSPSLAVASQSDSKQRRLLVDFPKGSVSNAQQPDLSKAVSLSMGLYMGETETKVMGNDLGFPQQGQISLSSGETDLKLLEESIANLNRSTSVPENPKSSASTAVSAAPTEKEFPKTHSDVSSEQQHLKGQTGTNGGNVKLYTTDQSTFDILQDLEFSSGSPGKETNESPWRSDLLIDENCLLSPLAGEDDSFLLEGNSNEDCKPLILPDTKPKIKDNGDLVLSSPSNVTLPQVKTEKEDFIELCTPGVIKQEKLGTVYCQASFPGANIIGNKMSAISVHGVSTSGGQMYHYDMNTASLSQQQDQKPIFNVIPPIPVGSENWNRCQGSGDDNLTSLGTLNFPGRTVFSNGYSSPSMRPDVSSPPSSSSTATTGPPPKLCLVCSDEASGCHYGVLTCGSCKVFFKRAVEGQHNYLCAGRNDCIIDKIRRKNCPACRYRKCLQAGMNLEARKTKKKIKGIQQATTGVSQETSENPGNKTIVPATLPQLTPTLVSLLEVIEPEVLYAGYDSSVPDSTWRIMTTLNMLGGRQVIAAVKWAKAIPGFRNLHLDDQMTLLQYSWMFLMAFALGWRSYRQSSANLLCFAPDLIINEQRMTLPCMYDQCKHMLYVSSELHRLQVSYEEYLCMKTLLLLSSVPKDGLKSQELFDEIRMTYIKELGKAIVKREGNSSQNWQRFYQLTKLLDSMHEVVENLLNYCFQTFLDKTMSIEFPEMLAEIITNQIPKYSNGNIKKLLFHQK

[3] = molecular target: T3, Prostaglandin G/H synthase 1 (Rattus norvegicus, UniProt Q63921); format: functional; note: assay procedure not described here
T3 sequence (Q63921 whole entry): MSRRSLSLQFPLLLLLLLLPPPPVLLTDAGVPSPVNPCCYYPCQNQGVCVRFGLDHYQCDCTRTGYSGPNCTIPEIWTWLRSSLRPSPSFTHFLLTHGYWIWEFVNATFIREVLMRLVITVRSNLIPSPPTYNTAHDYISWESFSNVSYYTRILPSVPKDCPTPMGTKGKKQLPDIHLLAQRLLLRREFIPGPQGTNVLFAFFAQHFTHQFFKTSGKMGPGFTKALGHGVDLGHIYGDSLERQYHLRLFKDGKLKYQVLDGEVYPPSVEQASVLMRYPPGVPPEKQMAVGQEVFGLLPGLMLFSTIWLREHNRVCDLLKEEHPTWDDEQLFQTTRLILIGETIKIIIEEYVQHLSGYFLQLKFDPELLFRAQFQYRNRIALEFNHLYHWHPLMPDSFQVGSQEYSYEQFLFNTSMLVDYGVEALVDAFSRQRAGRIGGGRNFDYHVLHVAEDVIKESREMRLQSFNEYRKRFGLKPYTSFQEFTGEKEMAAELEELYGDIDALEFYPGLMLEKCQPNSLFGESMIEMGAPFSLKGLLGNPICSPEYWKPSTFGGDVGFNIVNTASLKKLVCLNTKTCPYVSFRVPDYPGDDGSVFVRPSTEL

[4] = molecular target: T4, Alpha-2A adrenergic receptor (Homo sapiens, UniProt P08913)
T4 sequence (P08913 whole entry): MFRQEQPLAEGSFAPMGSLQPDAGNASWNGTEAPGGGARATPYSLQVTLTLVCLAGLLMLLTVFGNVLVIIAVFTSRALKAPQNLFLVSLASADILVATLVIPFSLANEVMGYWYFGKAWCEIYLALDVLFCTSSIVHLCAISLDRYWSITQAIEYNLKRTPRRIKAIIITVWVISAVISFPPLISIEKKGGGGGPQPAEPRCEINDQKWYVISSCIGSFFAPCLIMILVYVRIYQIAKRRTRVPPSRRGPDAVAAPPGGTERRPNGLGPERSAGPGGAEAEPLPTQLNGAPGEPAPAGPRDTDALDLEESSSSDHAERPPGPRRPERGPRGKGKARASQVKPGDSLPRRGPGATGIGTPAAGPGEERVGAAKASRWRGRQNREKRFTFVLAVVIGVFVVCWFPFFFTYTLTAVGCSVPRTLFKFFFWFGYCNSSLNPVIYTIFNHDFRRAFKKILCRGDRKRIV

[5] = molecular target: Synaptic vesicular amine transporter (Rattus norvegicus, UniProt Q01827); format: functional; note: assay procedure not described here
[6] = molecular target: Sodium-dependent serotonin transporter (Homo sapiens, UniProt P31645); note: assay procedure not described here
[7] = molecular target: T5, Gamma-aminobutyric acid receptor subunit alpha-1/alpha-2/beta-2/gamma-2 (Homo sapiens, UniProt P14867+P47870+P18507+P47869); format: functional, cell-based; note: assay procedure not described here
[8] = molecular target: T5, Gamma-aminobutyric acid receptor subunit alpha-1/alpha-2/beta-2/gamma-2; format: functional, cell-based; remark: listed apart in the source

T5 sequence (P14867 whole entry): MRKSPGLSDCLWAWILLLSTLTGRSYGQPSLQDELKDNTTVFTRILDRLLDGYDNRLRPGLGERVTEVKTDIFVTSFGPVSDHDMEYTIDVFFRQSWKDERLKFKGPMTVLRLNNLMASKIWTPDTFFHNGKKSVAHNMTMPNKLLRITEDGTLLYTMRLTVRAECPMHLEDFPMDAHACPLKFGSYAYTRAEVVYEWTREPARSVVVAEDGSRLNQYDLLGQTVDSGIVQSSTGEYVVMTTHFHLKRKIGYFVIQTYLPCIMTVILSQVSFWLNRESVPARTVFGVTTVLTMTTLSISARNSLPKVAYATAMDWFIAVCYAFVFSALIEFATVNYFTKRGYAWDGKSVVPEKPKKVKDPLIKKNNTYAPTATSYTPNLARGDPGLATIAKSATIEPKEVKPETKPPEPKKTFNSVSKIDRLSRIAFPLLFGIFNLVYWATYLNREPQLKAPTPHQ
T5 sequence (P47870 whole entry): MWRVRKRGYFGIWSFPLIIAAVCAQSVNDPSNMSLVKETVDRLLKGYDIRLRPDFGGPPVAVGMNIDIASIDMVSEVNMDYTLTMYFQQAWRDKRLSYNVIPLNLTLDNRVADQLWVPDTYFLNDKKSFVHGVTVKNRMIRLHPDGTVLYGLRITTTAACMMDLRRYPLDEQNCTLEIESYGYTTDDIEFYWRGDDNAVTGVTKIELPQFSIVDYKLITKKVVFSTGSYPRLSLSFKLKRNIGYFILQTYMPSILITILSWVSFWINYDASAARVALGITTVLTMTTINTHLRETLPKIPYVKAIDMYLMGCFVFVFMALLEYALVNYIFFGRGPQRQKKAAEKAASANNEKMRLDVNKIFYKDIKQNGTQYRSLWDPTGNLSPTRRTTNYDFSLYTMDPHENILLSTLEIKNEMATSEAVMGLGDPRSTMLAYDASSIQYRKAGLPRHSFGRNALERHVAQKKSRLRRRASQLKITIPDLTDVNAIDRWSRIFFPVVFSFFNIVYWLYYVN
T5 sequence (P18507 whole entry): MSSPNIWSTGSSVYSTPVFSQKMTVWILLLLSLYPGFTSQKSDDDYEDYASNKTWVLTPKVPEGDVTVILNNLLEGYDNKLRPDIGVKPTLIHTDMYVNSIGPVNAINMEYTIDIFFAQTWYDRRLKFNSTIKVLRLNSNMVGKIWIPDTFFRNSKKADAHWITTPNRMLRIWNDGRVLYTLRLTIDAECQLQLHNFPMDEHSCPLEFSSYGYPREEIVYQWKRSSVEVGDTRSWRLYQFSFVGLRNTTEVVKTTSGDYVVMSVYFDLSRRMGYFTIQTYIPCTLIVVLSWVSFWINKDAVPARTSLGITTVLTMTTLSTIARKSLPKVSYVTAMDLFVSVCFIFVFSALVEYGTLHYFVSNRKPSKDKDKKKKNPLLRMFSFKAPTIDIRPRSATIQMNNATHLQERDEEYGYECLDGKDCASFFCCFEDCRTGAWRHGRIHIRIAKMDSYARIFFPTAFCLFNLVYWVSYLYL
T5 sequence (P47869 whole entry): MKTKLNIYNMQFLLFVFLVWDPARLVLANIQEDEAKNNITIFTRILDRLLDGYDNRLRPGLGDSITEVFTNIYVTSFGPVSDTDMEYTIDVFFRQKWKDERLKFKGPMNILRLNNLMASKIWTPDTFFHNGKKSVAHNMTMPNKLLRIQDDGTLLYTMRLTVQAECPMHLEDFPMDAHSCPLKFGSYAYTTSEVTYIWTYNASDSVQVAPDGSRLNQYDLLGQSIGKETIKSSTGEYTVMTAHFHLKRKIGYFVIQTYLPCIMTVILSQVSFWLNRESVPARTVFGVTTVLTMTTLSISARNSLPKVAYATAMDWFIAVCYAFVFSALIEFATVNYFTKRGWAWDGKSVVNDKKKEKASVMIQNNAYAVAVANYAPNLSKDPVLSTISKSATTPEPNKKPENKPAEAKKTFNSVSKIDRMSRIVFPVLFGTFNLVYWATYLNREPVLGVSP
Synaptic vesicular amine transporter, sequence (Q01827 whole entry): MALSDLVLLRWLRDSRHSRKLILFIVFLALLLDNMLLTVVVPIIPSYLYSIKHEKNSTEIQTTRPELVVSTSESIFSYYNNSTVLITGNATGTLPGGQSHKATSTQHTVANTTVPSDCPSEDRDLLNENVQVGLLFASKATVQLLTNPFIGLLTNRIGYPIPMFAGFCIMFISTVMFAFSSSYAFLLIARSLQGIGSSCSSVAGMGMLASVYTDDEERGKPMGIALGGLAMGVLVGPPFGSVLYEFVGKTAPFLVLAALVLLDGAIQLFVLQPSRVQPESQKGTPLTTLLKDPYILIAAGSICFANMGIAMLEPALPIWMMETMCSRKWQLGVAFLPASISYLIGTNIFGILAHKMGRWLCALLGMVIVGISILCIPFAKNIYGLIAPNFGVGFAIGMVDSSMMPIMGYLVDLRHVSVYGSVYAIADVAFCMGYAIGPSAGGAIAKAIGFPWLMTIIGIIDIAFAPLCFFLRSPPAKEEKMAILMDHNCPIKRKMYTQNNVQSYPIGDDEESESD
Sodium-dependent serotonin transporter, sequence (P31645 whole entry): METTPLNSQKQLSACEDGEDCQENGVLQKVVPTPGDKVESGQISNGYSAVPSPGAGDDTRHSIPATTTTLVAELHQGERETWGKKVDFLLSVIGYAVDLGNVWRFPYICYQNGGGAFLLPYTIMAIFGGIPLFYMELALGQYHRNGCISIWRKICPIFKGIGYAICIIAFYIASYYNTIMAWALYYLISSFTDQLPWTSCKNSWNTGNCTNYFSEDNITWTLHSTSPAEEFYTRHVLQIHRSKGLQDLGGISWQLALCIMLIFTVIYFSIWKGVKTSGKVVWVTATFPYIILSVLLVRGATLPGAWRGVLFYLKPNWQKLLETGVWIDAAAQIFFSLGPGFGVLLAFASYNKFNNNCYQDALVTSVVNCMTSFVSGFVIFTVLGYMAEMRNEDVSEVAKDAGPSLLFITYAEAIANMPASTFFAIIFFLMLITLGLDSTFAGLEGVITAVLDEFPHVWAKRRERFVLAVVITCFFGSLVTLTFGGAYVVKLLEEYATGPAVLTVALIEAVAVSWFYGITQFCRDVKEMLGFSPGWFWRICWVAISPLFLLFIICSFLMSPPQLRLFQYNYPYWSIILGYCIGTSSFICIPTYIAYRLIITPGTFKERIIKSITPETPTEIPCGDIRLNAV

NCCCC(O)(P(=O)(O)O)P(=O)(O)O [ALENDRONIC ACID]
AC50 [1]: > 30 µM
AC50 [2]: > 30 µM

COc1cccc2c1C(=O)c1c(O)c3c(c(O)c1C2=O)C[C@@](O)(C(C)=O)C[C@@H]3O[C@H]1C[C@H](N)[C@H](O)[C@H](C)O1 [DAUNORUBICIN]
AC50 (Glucocorticoid receptor): > 10 µM

COC(=O)N[C@@H](C)CNc1nccc(-c2cn(C(C)C)nc2-c2cc(Cl)cc(NS(C)(=O)=O)c2F)n1 [ENCORAFENIB]
AC50 [3]: > 30 µM

CC(C)CC(N(C)C)C1(c2ccc(Cl)cc2)CCC1 (centres undefined) [SIBUTRAMINE]
AC50 [4]: 2.14 µM

COc1ccc(C(CN(C)C)C2(O)CCCCC2)cc1 (centres undefined) [VENLAFAXINE]
AC50 [5]: > 30 µM

COLISTIN
AC50 [6]: > 30 µM
AC50 [7]: > 30 µM
AC50 [8]: > 30 µM
